Target: HCV NS3-4A serine protease (full-length NS3-4A protein) (Hepatitis C virus genotype 1a (isolate 1) (HCV), UniProt P26664)
Assay: HCV NS3-4A protease assay
Type: biochemical, HCV genotype 1a
Details: strain HCV-1, fluorogenic peptide substrate, read-out: Protease assay Ex. 12 IC50
Procedure: The inhibitory activity of certain compounds of Table A against HCV NS3-4A serine protease is determined in a homogenous assay using the full-length NS3-4A protein (genotype 1a, strain HCV-1) and a commercially available internally-quenched fluorogenic peptide substrate as described by Taliani, M., et al. 1996 Anal. Biochem. 240:60-67, which is incorporated by reference in its entirety.

Chain of HCV NS3-4A serine protease (full-length NS3-4A protein) (P26664 1027-1657): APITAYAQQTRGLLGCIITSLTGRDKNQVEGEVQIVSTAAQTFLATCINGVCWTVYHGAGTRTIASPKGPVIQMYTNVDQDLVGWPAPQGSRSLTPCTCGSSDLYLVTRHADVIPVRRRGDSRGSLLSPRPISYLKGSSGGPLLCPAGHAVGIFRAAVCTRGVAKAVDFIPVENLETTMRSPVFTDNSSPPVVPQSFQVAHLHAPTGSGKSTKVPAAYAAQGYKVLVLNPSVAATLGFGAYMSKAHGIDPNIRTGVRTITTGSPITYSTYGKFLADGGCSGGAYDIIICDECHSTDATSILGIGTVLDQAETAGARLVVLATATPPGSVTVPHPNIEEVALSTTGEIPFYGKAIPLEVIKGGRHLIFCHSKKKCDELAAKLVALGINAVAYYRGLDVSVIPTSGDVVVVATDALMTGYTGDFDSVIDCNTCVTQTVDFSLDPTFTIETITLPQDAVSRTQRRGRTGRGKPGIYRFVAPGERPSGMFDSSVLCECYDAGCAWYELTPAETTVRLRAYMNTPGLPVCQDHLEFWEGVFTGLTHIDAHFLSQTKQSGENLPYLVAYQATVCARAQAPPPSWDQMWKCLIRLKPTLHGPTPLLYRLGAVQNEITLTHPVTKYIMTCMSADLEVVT
Chain of HCV NS3-4A serine protease (full-length NS3-4A protein) (P26664 1658-1711 partner): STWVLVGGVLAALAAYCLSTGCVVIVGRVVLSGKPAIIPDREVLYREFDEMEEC

Structure (SMILES) | IC50 [nM]
C=C[C@@H]1C[C@]1(NC(=O)[C@@H]1C[C@@]2(CN1C(=O)[C@@H](NC(=O)[C@@H](NC(=O)[C@H]1CCCN1C(C)C)C1CCCCC1)C(C)(C)C)C(C)(C)C21CCC1)C(=O)NS(=O)(=O)N1CCCC1 [Compound 16, (5R,8S)-7-[(2S)-2-{[(2S)-2-cyclohexyl-2-({[(2R)-1-isopropylpyrrolidin-2-yl]carbonyl}amino)acetyl]amino}-3,3-dimethylbutanoyl]-10,10-dimethyl-N-{(1R,2S)-1-[(pyrrolidin-1-ylsulfonyl)carbamoyl]-2-vinylcyclopropyl}-7-azadispiro[3.0.4.1]decane-8-carboxamide] | 2.3
C=C[C@@H]1C[C@]1(NC(=O)[C@@H]1C[C@@]2(CN1C(=O)[C@@H](NC(=O)[C@@H](NC(=O)[C@H]1CCN1C(C)C)C1CCCCC1)C(C)(C)C)C(C)(C)C21CCC1)C(=O)NS(=O)(=O)N1CCCC1 [Compound 18, (5R,8S)-7-[(2S)-2-{[(2S)-2-cyclohexyl-2-({[(2R)-1-isopropylazetidin-2-yl]carbonyl}amino)acetyl]amino}-3,3-dimethylbutanoyl]-10,10-dimethyl-N-{(1R,2S)-1-[(pyrrolidin-1-ylsulfonyl)carbamoyl]-2-vinylcyclopropyl}-7-azadispiro[3.0.4.1]decane-8-carboxamide] | 10
C=C[C@@H]1C[C@]1(NC(=O)[C@@H]1C[C@@]2(CN1C(=O)[C@@H](NC(=O)[C@@H](NC(=O)C1CN(C(C)C)C1)C1CCCCC1)C(C)(C)C)C(C)(C)C21CCC1)C(=O)NS(=O)(=O)N1CCCC1 [Compound 19, (5R,8S)-7-[(2S)-2-{[(2S)-2-cyclohexyl-2-{[(1-isopropylazetidin-3-yl)carbonyl]amino}acetyl]amino}-3,3-dimethylbutanoyl]-10,10-dimethyl-N-{(1R,2S)-1-[(pyrrolidin-1-ylsulfonyl)carbamoyl]-2-vinylcyclopropyl}-7-azadispiro[3.0.4.1]decane-8-carboxamide] | 55
C=C[C@@H]1C[C@]1(NC(=O)[C@@H]1C[C@@]2(CN1C(=O)[C@@H](NC(=O)[C@@H](NC(=O)[C@@H]1CCCCN1CCF)C(C)(C)C)C(C)(C)C)C(C)(C)C21CCC1)C(=O)NS(=O)(=O)N1CCCC1 [Compound 20, (5R,8S)-7-[(2S)-2-{[(2S)-2-({[(2S)-1-(2-fluoroethyl)piperidin-2-yl]carbonyl}amino)-3,3-dimethylbutanoyl]amino}-3,3-dimethylbutanoyl]-10,10-dimethyl-N-{(1R,2S)-1-[(pyrrolidin-1-ylsulfonyl)carbamoyl]-2-vinylcyclopropyl}-7-azadispiro[3.0.4.1]decane-8-carboxamide] | 70
C=C[C@@H]1C[C@]1(NC(=O)[C@@H]1C[C@@]2(CN1C(=O)[C@@H](NC(=O)[C@@H](NC(=O)[C@H]1CCCN1C(C)C)C(C)(C)C)C(C)(C)C)C(C)(C)C21CCC1)C(=O)NS(=O)(=O)N1CCCC1 [Compound 21, (5R,8S)-7-[(2S)-2-{[(2S)-2-({[(2R)-1-isopropylpyrrolidin-2-yl]carbonyl}amino)-3,3-dimethylbutanoyl]amino}-3,3-dimethylbutanoyl]-10,10-dimethyl-N-{(1R,2S)-1-[(pyrrolidin-1-ylsulfonyl)carbamoyl]-2-vinylcyclopropyl}-7-azadispiro[3.0.4.1]decane-8-carboxamide] | 35
C=C[C@@H]1C[C@]1(NC(=O)[C@@H]1C[C@@]2(CN1C(=O)[C@@H](NC(=O)[C@@H](NC(=O)[C@H]1CCN1C(C)C)C(C)(C)C)C(C)(C)C)C(C)(C)C21CCC1)C(=O)NS(=O)(=O)N1CCCC1 [Compound 22, (5R,8S)-7-[(2S)-2-{[(2S)-2-({[(2R)-1-isopropylazetidin-2-yl]carbonyl}amino)-3,3-dimethylbutanoyl]amino}-3,3-dimethylbutanoyl]-10,10-dimethyl-N-{(1R,2S)-1-[(pyrrolidin-1-ylsulfonyl)carbamoyl]-2-vinylcyclopropyl}-7-azadispiro[3.0.4.1]decane-8-carboxamide] | 95
C=C[C@@H]1C[C@]1(NC(=O)[C@@H]1C[C@@]2(CN1C(=O)[C@@H](NC(=O)[C@@H](NC(=O)C1CN(C(C)C)C1)C(C)(C)C)C(C)(C)C)C(C)(C)C21CCC1)C(=O)NS(=O)(=O)N1CCCC1 [Compound 23, (5R,8S)-7-[(2S)-2-{[(2S)-2-{[(1-isopropylazetidin-3-yl)carbonyl]amino}-3,3-dimethylbutanoyl]amino}-3,3-dimethylbutanoyl]-10,10-dimethyl-N-{(1R,2S)-1-[(pyrrolidin-1-ylsulfonyl)carbamoyl]-2-vinylcyclopropyl}-7-azadispiro[3.0.4.1]decane-8-carboxamide] | 400
C=C[C@@H]1C[C@]1(NC(=O)[C@@H]1C[C@@]2(CN1C(=O)[C@@H](NC(=O)[C@@H](NC(=O)C(C)(C)N1CCCCC1)C(C)(C)C)C(C)(C)C)C(C)(C)C21CCC1)C(=O)NS(=O)(=O)N1CCCC1 [Compound 24, (5R,8S)-7-[(2S)-2-({(2S)-3,3-dimethyl-2-[(2-methyl-2-piperidin-1-ylpropanoyl)amino]butanoyl}amino)-3,3-dimethylbutanoyl]-10,10-dimethyl-N-{(1R,2S)-1-[(pyrrolidin-1-ylsulfonyl)carbamoyl]-2-vinylcyclopropyl}-7-azadispiro[3.0.4.1]decane-8-carboxamide] | 65
C=C[C@@H]1C[C@]1(NC(=O)[C@@H]1C[C@@]2(CN1C(=O)[C@@H](NC(=O)[C@@H](NC(=O)C(C)(C)N1CCCCC1)C1CCCCC1)C(C)(C)C)C(C)(C)C21CCC1)C(=O)NS(=O)(=O)N1CCCC1 [Compound 25, (5R,8S)-7-[(2S)-2-({(2S)-2-cyclohexyl-2-[(2-methyl-2-piperidin-1-ylpropanoyl)amino]acetyl}amino)-3,3-dimethylbutanoyl]-10,10-dimethyl-N-{(1R,2S)-1-[(pyrrolidin-1-ylsulfonyl)carbamoyl]-2-vinylcyclopropyl}-7-azadispiro[3.0.4.1]decane-8-carboxamide] | 8
C=C[C@@H]1C[C@]1(NC(=O)[C@@H]1C[C@@]2(CN1C(=O)[C@@H](NC(=O)[C@@H](NC(=O)[C@@H]1CCCCN1CCF)C1CCCCC1)C(C)(C)C)C(C)(C)C21CCC1)C(=O)NS(=O)(=O)N1CCCC1 [Compound 26, (5R,8S)-7-[(2S)-2-{[(2S)-2-cyclohexyl-2-({[(2S)-1-(2-fluoroethyl)piperidin-2-yl]carbonyl}amino)acetyl]amino}-3,3-dimethylbutanoyl]-10,10-dimethyl-N-{(1R,2S)-1-[(pyrrolidin-1-ylsulfonyl)carbamoyl]-2-vinylcyclopropyl}-7-azadispiro[3.0.4.1]decane-8-carboxamide] | 15
C=C[C@@H]1C[C@]1(NC(=O)[C@@H]1C[C@@]2(CN1C(=O)[C@@H](NC(=O)[C@@H](NC(=O)[C@@H]1CCCN1C1CCCC1)C1CCCCC1)C(C)(C)C)C(C)(C)C21CCC1)C(=O)NS(=O)(=O)N1CCCC1 [Compound 28, (5R,8S)-7-[(2S)-2-{[(2S)-2-cyclohexyl-2-({[(2S)-1-cyclopentylpyrrolidin-2-yl]carbonyl}amino)acetyl]amino}-3,3-dimethylbutanoyl]-10,10-dimethyl-N-{(1R,2S)-1-[(pyrrolidin-1-ylsulfonyl)carbamoyl]-2-vinylcyclopropyl}-7-azadispiro[3.0.4.1]decane-8-carboxamide] | 2
C=C[C@@H]1C[C@]1(NC(=O)[C@@H]1C[C@@]2(CN1C(=O)[C@@H](NC(=O)[C@@H](NC(=O)[C@@H]1Cc3[nH]cnc3CN1)C(C)(C)C)C(C)(C)C)C(C)(C)C21CCC1)C(=O)NS(=O)(=O)N1CCCC1 [Compound 29, (5R,8S)-7-[(2S)-2-{[(2S)-3,3-dimethyl-2-{[(6S)-4,5,6,7-tetrahydro-1H-imidazo[4,5-c]pyridin-6-ylcarbonyl]amino}butanoyl]amino}-3,3-dimethylbutanoyl]-10,10-dimethyl-N-{(1R,2S)-1-[(pyrrolidin-1-ylsulfonyl)carbamoyl]-2-vinylcyclopropyl}-7-azadispiro[3.0.4.1]decane-8-carboxamide] | 40
CC[C@@H]1C[C@]1(NC(=O)[C@@H]1C[C@@]2(CN1C(=O)[C@@H](NC(=O)[C@@H](NC(=O)[C@@H]1CCCCN1C(C)C)C(C)(C)C)C(C)(C)C)C(C)(C)C21CCC1)C(=O)NS(=O)(=O)N1CCCC1 [Compound 30, (5R,8S)-N-{(1R,2R)-2-ethyl-1-[(pyrrolidin-1-ylsulfonyl)carbamoyl]cyclopropyl}-7-[(2S)-2-{[(2S)-2-({[(2S)-1-isopropylpiperidin-2-yl]carbonyl}amino)-3,3-dimethylbutanoyl]amino}-3,3-dimethylbutanoyl]-10,10-dimethyl-7-azadispiro[3.0.4.1]decane-8-carboxamide] | 62
C=C[C@@H]1C[C@]1(NC(=O)[C@@H]1C[C@@]2(CN1C(=O)[C@@H](NC(=O)[C@@H](NC(=O)[C@@H]1CCCCN1C1CCCC1)C(C)(C)C)C(C)(C)C)C(C)(C)C21CCC1)C(=O)NS(=O)(=O)N1CCCC1 [Compound 31, (5R,8S)-7-[(2S)-2-{[(2S)-2-({[(2S)-1-cyclopentylpiperidin-2-yl]carbonyl}amino)-3,3-dimethylbutanoyl]amino}-3,3-dimethylbutanoyl]-10,10-dimethyl-N-{(1R,2S)-1-[(pyrrolidin-1-ylsulfonyl)carbamoyl]-2-vinylcyclopropyl}-7-azadispiro[3.0.4.1]decane-8-carboxamide] | 8
C=C[C@@H]1C[C@]1(NC(=O)[C@@H]1C[C@@]2(CN1C(=O)[C@@H](NC(=O)[C@@H](NC(=O)[C@@H]1CCCCN1C1CCCC1)C1CCCCC1)C(C)(C)C)C(C)(C)C21CCC1)C(=O)NS(=O)(=O)N1CCCC1 [Compound 32, (5R,8S)-7-[(2S)-2-{[(2S)-2-cyclohexyl-2-({[(2S)-1-cyclopentylpiperidin-2-yl]carbonyl}amino)acetyl]amino}-3,3-dimethylbutanoyl]-10,10-dimethyl-N-{(1R,2S)-1-[(pyrrolidin-1-ylsulfonyl)carbamoyl]-2-vinylcyclopropyl}-7-azadispiro[3.0.4.1]decane-8-carboxamide] | 1
